From the supplement of paper PMC10307832

Tests used:
Test in all cases: relative viability (nuclei count vs DMSO), 5 days (fraction); higher = more cells survive
[1] = compound: CC[C@H](CO)Nc1nc(NCc2ccccc2)c2ncn(C(C)C)c2n1 [Seliciclib] + CC1(C)CCC(c2ccc(Cl)cc2)=C(CN2CCN(c3ccc(C(=O)NS(=O)(=O)c4ccc(N[C@H](CCN5CCOCC5)CSc5ccccc5)c(S(=O)(=O)C(F)(F)F)c4)cc3)CC2)C1 [Navitoclax] (partner 0.5 µM)
Method in brief: (§1)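 Each reported value is a median over duplicate plates. It expresses relative viability: treated-well nuclei count divided by vehicle-well nuclei count. Lung cancer cell lines in 1536-well plates were dosed by pin tool a day after seeding, alone with one drug or with a fixed anchor-drug dose plus five library-drug doses (not always all listed) in √10 steps, and nuclei were counted after 5 days.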

[2] = compound: CC[C@H](CO)Nc1nc(NCc2ccccc2)c2ncn(C(C)C)c2n1 [Seliciclib] + CCNC(=O)c1noc(-c2cc(C(C)C)c(O)cc2O)c1-c1ccc(CN2CCOCC2)cc1 [Luminespib] (partner 0.01 µM)
Method in brief: as §1

[3] = compound: CC[C@H](CO)Nc1nc(NCc2ccccc2)c2ncn(C(C)C)c2n1 [Seliciclib] + COc1cc2c(Oc3ccc(NC(=O)C4(C(=O)Nc5ccc(F)cc5)CC4)cc3F)ccnc2cc1OCCCN1CCOCC1 [Foretinib] (partner 0.25 µM)
Method in brief: as §1

[4] = compound: CC[C@H](CO)Nc1nc(NCc2ccccc2)c2ncn(C(C)C)c2n1 [Seliciclib] + C[C@]1(O)C[C@@H](c2nc(-c3ccc4ccc(-c5ccccc5)nc4c3)c3c(N)nccn32)C1 [Linsitinib] (partner 1 µM)
Method in brief: as §1

Cell Line: PC-3 [JPC-3]
- relative viability ([1]; first compound 0.08 µM): 0.829
- relative viability ([1]; first compound 0.253 µM): 0.84
- relative viability ([1]; first compound 0.8 µM): 0.77
- relative viability ([1]; first compound 2.53 µM): 0.786
- relative viability ([1]; first compound 8 µM): 0.751
- relative viability ([2]; first compound 0.08 µM): 0.81
- relative viability ([2]; first compound 0.253 µM): 0.584
- relative viability ([2]; first compound 0.8 µM): 0.63
- relative viability ([2]; first compound 2.53 µM): 0.605
- relative viability ([2]; first compound 8 µM): 0.66
- relative viability ([3]; first compound 0.08 µM): 1.07
- relative viability ([3]; first compound 0.253 µM): 1.09
- relative viability ([3]; first compound 0.8 µM): 0.997
- relative viability ([3]; first compound 2.53 µM): 0.997
- relative viability ([3]; first compound 8 µM): 0.809
- relative viability ([4]; first compound 0.08 µM): 0.954
- relative viability ([4]; first compound 0.253 µM): 0.994
- relative viability ([4]; first compound 0.8 µM): 1
- relative viability ([4]; first compound 2.53 µM): 0.915
- relative viability ([4]; first compound 8 µM): 0.893

Cell Line: PC-14
- relative viability ([1]; first compound 0.08 µM): 0.988
- relative viability ([1]; first compound 0.253 µM): 1.04
- relative viability ([1]; first compound 0.8 µM): 0.959
- relative viability ([1]; first compound 2.53 µM): 1.09
- relative viability ([1]; first compound 8 µM): 0.767
- relative viability ([2]; first compound 0.08 µM): 0.179
- relative viability ([2]; first compound 0.8 µM): 0.114
- relative viability ([2]; first compound 2.53 µM): 0.135
- relative viability ([2]; first compound 8 µM): 0.203
- relative viability ([3]; first compound 0.08 µM): 0.884
- relative viability ([3]; first compound 0.253 µM): 0.971
- relative viability ([3]; first compound 0.8 µM): 0.902
- relative viability ([3]; first compound 2.53 µM): 0.997
- relative viability ([3]; first compound 8 µM): 0.843
- relative viability ([4]; first compound 0.08 µM): 0.922
- relative viability ([4]; first compound 0.253 µM): 0.921
- relative viability ([4]; first compound 0.8 µM): 0.936
- relative viability ([4]; first compound 2.53 µM): 0.994
- relative viability ([4]; first compound 8 µM): 0.845

Cell Line: RERF-LC-KJ
- relative viability ([1]; first compound 0.08 µM): 0.759
- relative viability ([1]; first compound 0.253 µM): 0.673
- relative viability ([1]; first compound 0.8 µM): 0.812
- relative viability ([1]; first compound 2.53 µM): 0.804
- relative viability ([1]; first compound 8 µM): 0.651
- relative viability ([2]; first compound 0.08 µM): 1.29
- relative viability ([2]; first compound 0.253 µM): 1.07
- relative viability ([2]; first compound 0.8 µM): 1.21
- relative viability ([2]; first compound 2.53 µM): 1.28
- relative viability ([2]; first compound 8 µM): 0.859
- relative viability ([3]; first compound 0.08 µM): 0.828
- relative viability ([3]; first compound 0.253 µM): 0.748
- relative viability ([3]; first compound 0.8 µM): 0.83
- relative viability ([3]; first compound 2.53 µM): 0.922
- relative viability ([3]; first compound 8 µM): 0.803
- relative viability ([4]; first compound 0.08 µM): 0.869
- relative viability ([4]; first compound 0.253 µM): 0.814
- relative viability ([4]; first compound 0.8 µM): 0.855
- relative viability ([4]; first compound 2.53 µM): 0.909
- relative viability ([4]; first compound 8 µM): 0.883

Cell Line: SK-LU-1
- relative viability ([1]; first compound 0.08 µM): 0.866
- relative viability ([1]; first compound 0.253 µM): 0.973
- relative viability ([1]; first compound 0.8 µM): 0.575
- relative viability ([1]; first compound 2.53 µM): 0.978
- relative viability ([1]; first compound 8 µM): 0.627
- relative viability ([2]; first compound 0.08 µM): 0.204
- relative viability ([2]; first compound 0.253 µM): 0.209
- relative viability ([2]; first compound 0.8 µM): 0.207
- relative viability ([2]; first compound 2.53 µM): 0.187
- relative viability ([2]; first compound 8 µM): 0.21
- relative viability ([3]; first compound 0.08 µM): 0.832
- relative viability ([3]; first compound 0.253 µM): 0.785
- relative viability ([3]; first compound 0.8 µM): 0.83
- relative viability ([3]; first compound 2.53 µM): 0.914
- relative viability ([3]; first compound 8 µM): 0.654
- relative viability ([4]; first compound 0.08 µM): 0.973
- relative viability ([4]; first compound 0.253 µM): 0.868
- relative viability ([4]; first compound 0.8 µM): 1.32
- relative viability ([4]; first compound 2.53 µM): 1.09
- relative viability ([4]; first compound 8 µM): 0.687

Cell Line: SK-MES-1
- relative viability ([1]; first compound 0.08 µM): 1.24
- relative viability ([1]; first compound 0.253 µM): 1.34
- relative viability ([1]; first compound 0.8 µM): 1.11
- relative viability ([1]; first compound 2.53 µM): 1.04
- relative viability ([1]; first compound 8 µM): 0.715
- relative viability ([2]; first compound 0.08 µM): 0.814
- relative viability ([2]; first compound 0.253 µM): 0.854
- relative viability ([2]; first compound 0.8 µM): 0.733
- relative viability ([2]; first compound 2.53 µM): 1.1
- relative viability ([2]; first compound 8 µM): 0.601
- relative viability ([3]; first compound 0.08 µM): 0.891
- relative viability ([3]; first compound 0.253 µM): 0.889
- relative viability ([3]; first compound 0.8 µM): 0.771
- relative viability ([3]; first compound 2.53 µM): 0.903
- relative viability ([3]; first compound 8 µM): 0.862
- relative viability ([4]; first compound 0.08 µM): 1.02
- relative viability ([4]; first compound 0.253 µM): 0.995
- relative viability ([4]; first compound 0.8 µM): 1.04
- relative viability ([4]; first compound 2.53 µM): 1.05
- relative viability ([4]; first compound 8 µM): 0.981

Cell Line: SW 1573
- relative viability ([1]; first compound 0.08 µM): 1.09
- relative viability ([1]; first compound 0.253 µM): 0.732
- relative viability ([1]; first compound 0.8 µM): 0.901
- relative viability ([1]; first compound 2.53 µM): 0.86
- relative viability ([1]; first compound 8 µM): 0.655
- relative viability ([2]; first compound 0.08 µM): 0.727
- relative viability ([2]; first compound 0.253 µM): 0.431
- relative viability ([2]; first compound 0.8 µM): 0.219
- relative viability ([2]; first compound 2.53 µM): 0.197
- relative viability ([2]; first compound 8 µM): 0.243
- relative viability ([3]; first compound 0.08 µM): 0.879
- relative viability ([3]; first compound 0.253 µM): 1.01
- relative viability ([3]; first compound 0.8 µM): 0.946
- relative viability ([3]; first compound 2.53 µM): 0.65
- relative viability ([3]; first compound 8 µM): 0.739
- relative viability ([4]; first compound 0.08 µM): 0.768
- relative viability ([4]; first compound 0.253 µM): 0.792
- relative viability ([4]; first compound 0.8 µM): 0.904
- relative viability ([4]; first compound 2.53 µM): 0.743
- relative viability ([4]; first compound 8 µM): 0.668

Cell Line: UMC-11
- relative viability ([1]; first compound 0.08 µM): 0.316
- relative viability ([1]; first compound 0.253 µM): 0.279
- relative viability ([1]; first compound 0.8 µM): 0.313
- relative viability ([1]; first compound 2.53 µM): 0.29
- relative viability ([1]; first compound 8 µM): 0.25
- relative viability ([2]; first compound 0.08 µM): 0.963
- relative viability ([2]; first compound 0.253 µM): 0.78
- relative viability ([2]; first compound 0.8 µM): 1.09
- relative viability ([2]; first compound 2.53 µM): 1.06
- relative viability ([2]; first compound 8 µM): 0.829
- relative viability ([3]; first compound 0.08 µM): 1.05
- relative viability ([3]; first compound 0.253 µM): 0.87
- relative viability ([3]; first compound 0.8 µM): 1.01
- relative viability ([3]; first compound 2.53 µM): 0.939
- relative viability ([3]; first compound 8 µM): 0.784
- relative viability ([4]; first compound 0.08 µM): 1.02
- relative viability ([4]; first compound 0.253 µM): 0.872
- relative viability ([4]; first compound 0.8 µM): 1.01
- relative viability ([4]; first compound 2.53 µM): 1.04
- relative viability ([4]; first compound 8 µM): 0.851
